Results published in US20030083271A1, “Topoisomerase I selective cytotoxic sugar derivatives of indolopyrrolocarbazoles” (priority 2001, published 2003).

Key:
[1] = target: T1, purified human topoisomerase I (Homo sapiens, UniProt P11387); test: Topoisomerase I-mediated single strand DNA break induction (in vitro); format: biochemical; conditions: median effect concentration for inducing single-strand breaks in the DNA substrate; read-out: Topo I EC50
T1 construct: purchased Topogen
T1 sequence (P11387 1-765): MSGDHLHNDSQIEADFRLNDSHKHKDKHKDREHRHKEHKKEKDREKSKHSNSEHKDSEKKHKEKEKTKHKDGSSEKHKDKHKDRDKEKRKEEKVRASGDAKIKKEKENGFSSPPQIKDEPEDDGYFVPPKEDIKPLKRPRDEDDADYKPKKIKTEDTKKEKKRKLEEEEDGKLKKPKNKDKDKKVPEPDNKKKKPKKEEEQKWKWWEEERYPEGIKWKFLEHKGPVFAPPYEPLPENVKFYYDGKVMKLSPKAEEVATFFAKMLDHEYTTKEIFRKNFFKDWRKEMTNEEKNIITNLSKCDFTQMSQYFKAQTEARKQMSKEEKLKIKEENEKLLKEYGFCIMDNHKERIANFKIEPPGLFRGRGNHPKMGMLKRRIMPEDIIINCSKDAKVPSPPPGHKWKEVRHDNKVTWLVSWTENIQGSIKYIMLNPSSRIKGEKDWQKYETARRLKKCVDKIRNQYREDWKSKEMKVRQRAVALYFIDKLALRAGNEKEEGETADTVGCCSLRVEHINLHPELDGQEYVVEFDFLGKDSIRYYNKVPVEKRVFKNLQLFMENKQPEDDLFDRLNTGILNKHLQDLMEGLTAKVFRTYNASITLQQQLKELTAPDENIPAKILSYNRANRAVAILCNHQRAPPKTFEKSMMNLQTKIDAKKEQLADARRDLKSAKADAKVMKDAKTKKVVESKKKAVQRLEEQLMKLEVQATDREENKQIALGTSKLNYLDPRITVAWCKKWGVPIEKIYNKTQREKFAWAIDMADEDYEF
Description: Topoisomerase I activity was measured as described below. The procedure for assaying compound-induced, topoisomerase I-mediated single strand breaks in DNA was essentially that described by Hsiang, et al., (J. Biol. Chem. 1985, 260, 14873-14878). Samples dissolved in 100% DMSO as either […] or 10 mg/ml solutions, unless otherwise stated, were diluted in Tris-EDTA buffer. Marine bacteriophage PM2 DNA (Boehringer Mannheim) was also diluted in Tris-EDTA buffer to a concentration of 0.02 μg/μl. Different dilutions of the compound being evaluated were mixed with diluted DNA and this mixture was added to […] (one unit of enzyme activity is defined as the amount capable of relaxing 100 ng of supercoiled DNA in approximately 30 minutes at 37° C.) aliquots of purified human topoisomerase I (Topogen) in 2X reaction buffer to start the reaction. The compound-DNA-enzyme mixture was incubated for 30 minutes at 37° C. before stopping the reaction with warm stop buffer containing sodium dodecyl sulfate and proteinase K (Sigma). These mixtures were allowed to incubate at 37° C. for another 10 minutes, at which time the mixtures were removed from the waterbath and extracted with a 24:1 mixture of chloroform/isoamyl alcohol. Following centrifugation, aliquots of the aqueous phases were placed in wells of a 0.9% agarose (SeaKem) gel in Tris-borate buffer containing 0.5 μg/ml of ethidium bromide and subjected to electrophoresis for 15 hours to separate the different topological isomers and nicked and broken DNAs. After destaining the gel in water, the ethidium bromide stained DNA reaction products were visualized by exposing the gel to UV irradiation. Negatives of the photographs of the irradiated gels were scanned with a densitometer and areas under the peaks were calculated in order to obtain percent single strand DNA break formation for each sample. A median effective concentration (EC50) was obtained for each compound by interpolation between points of the resulting dose-effect curve which defines the potency of the compound for its effect in inducing topoisomerase I-mediated single strand breaks in DNA. The topoisomerase I activities for certain compounds of the present invention are shown below in Table I.

[2] = test system: P388 murine leukemia cells; test: In vitro cell-based cytotoxicity, parental P388 cells; conditions: Mus musculus, 72 h, median cytotoxic concentration, 3 days continuous exposure
Description: The proliferation inhibition activity against the murine P388 cell line was measured as follows. Evaluation of a soluble tetrazolium/formazan assay for cell growth and drug sensitivity in culture, using human and other tumor cell lines, was done according to the procedure described in Cancer Res. 1988, 48, 4827-4833. Cells were plated at 4000 cells/well in 96 well microtiter plates and 24 h later drugs were added and serially diluted. The cells were incubated at 37° C. for 72 h, at which time a tetrazolium dye, XTT, containing phenazine methosulfate was added. A dehydrogenase enzyme in live cells reduced the XTT to a form that absorbs light at 450 nm, which could be quantitated spectrophotometrically. The greater the absorbance the greater the number of live cells. The results are expressed as an IC50, which is the drug concentration required to inhibit cell proliferation (i.e., absorbance at 450 nm) to 50% of that of untreated control cells.
(§1) Similarly, P338 murine leukemia cells were maintained in RPMI 1640 supplemented with 20% fetal bovine serum and 10 μM 2-mercaptoethanol. A camptothecin resistant subline, P388/CPT45, was selected for resistance to camptothecin and is over 1000-fold resistant to this compound (Woessner, et al. Oncol. Res. 1992, 4, 481-488).
(§2) In vitro cytotoxicity was assessed in tissue culture cells by MTS (3-(4,5-dimethylthiazol-2-yl)-5-(3-carboxymethoxyphenyl)-2-(4-sulphenyl)-2H-tetrazolium, inner salt) assay (Riss and Moravec, Mol. Biol. Cell 1992, 3 (Suppl.), 184a). Cells were plated at 8,000 cell/well in 96 well microtiter plates and 24 hours later serial dilutions of the test compounds were made and added to the cells. The cells were incubated at 37° C. for 72 hours, at which time the tetrazolium dye, MTS at 333 μg/ml (final concentration), in combination with the electron coupling agent phenazine methosulfate at 25 μM (final concentration) was added. A dehydrogenase enzyme in live cells reduces the MTS to a form that absorbs light at 492 nm which can be quantitated spectrophotometrically. The greater the absorbance the greater the number of live cells. The results are expressed as an IC50, which is the drug concentration required to inhibit cell proliferation (i.e., absorbance at 492 nm) to 50% of that of untreated control cells.
The cytotoxic activity for certain compounds of the present invention, in both parental P388 and the camptothecin-resistant P388/CPT45 cell lines are shown below in Table I.

P388/CPT45 cells = test: Cytotoxicity in camptothecin-resistant P388/CPT45 cells relative to parental P388 (selectivity index R/S); format: cell-based, murine; conditions: IC50 P388/CPT45 cells divided by IC50 parental P388 cells
From the text: The present invention includes fluoro sugar and other sugar derivatives of indolopyrrolocarbazoles of formula (I), as defined above. […] Most importantly, the instant invention describes topo I active compounds, related to compounds disclosed in WO 98/07433 and co-pending U.S. application, Ser. No. 08/914566 (both herein incorporated by reference), which display a surprising and unexpected selectivity index when evaluated for cytotoxicity in certain cell lines which express normal levels of topo I required for cell proliferation, compared with cell lines that are deficient in or underexpress topo I. Said “selectivity index” (R/S) was generated by dividing the cytotoxic IC50 of a particular compound against a camptothecin-resistant murine leukemia cell line, P388/CPT45, by the IC50 generated when using the parent P388 cell line. […] A level of selectivity was judged to be advantageous and beneficial in, for example, modulating potential undesirable side effects and/or toxicity. The compounds of the present invention were selected from compounds generically disclosed in WO 98/07433 and co-pending U.S. patent application, Ser. No. 08/914566, on the basis of an unexpected and unpredictable selectivity index (see Table I and II). […] Simple changes in the substitution of the sugar portion or the indolopyrrolocarbazole portion of the present invention will change the selectivity. This change in selectivity is not predictable by one skilled in the art.
as §1, §2
The selectivity index (R/S) is defined as the ratio obtained by dividing the IC50 value obtained using P388/CPT45 cells by that obtained using parental P388 cells. The R/S ratios used to determine the relative topo I selectivity of selected compounds of this invention are shown below in Table I.

Row | Compound | EC50 [1] | IC50 [2] | Selectivity Index R/S (P388/CPT45 cells)
1 | O=C1NC(=O)c2c1c1c3cc(F)c(F)cc3[nH]c1c1c2c2cc(F)c(F)cc2n1[C@@H]1O[C@H](CO)[C@@H](F)[C@H](O)[C@H]1O [Example 28, 12-[4-Deoxy-4-fluoro-β-D-glucopyranosyl]-2,3,9,10-tetrafluoro-12,13-dihydro-5H-indolo[2,3-a]pyrrolo[3,4-c]carbazole-5,7(6H)-dione] | 50 nM | 4 nM | 499.2
2 | O=C1NC(=O)c2c1c1c3cc(F)ccc3sc1c1c2c2cc(F)ccc2n1[C@@H]1O[C@H](CN2CCOCC2)[C@@H](O)[C@H](O)[C@H]1O [Example 13] | 160 nM | 100 nM | 140.0
3 | NC[C@H]1O[C@@H](n2c3ccc(F)cc3c3c4c(c5c6cc(F)ccc6sc5c32)C(=O)NC4=O)[C@H](O)[C@@H](O)[C@@H]1O [Example 6] | 70 nM | 68 nM | >116.3
4 | [N-]=[N+]=N[C@H]1[C@@H](O)[C@@H](O)[C@H](n2c3ccc(F)cc3c3c4c(c5c6cc(F)ccc6[nH]c5c32)C(=O)NC4=O)O[C@@H]1CF [Example 19] | 60 nM | < 3 nM | >195.2
5 | O=C1NC(=O)c2c1c1c3cc(F)c(F)cc3[nH]c1c1c2c2cc(F)c(F)cc2n1[C@@H]1O[C@H](CO)C(F)(F)[C@H](O)[C@H]1O [Example 14] | 30 nM | 6 nM | 140.3
6 | O=C1NC(=O)c2c1c1c3cc(F)c(F)cc3[nH]c1c1c2c2cc(F)c(F)cc2n1[C@@H]1O[C@H](CF)[C@@H](F)[C@H](O)[C@H]1O [Example 22, 12-[4,6-Difluoro-4,6-dideoxy-β-D-glucopyranosyl]-2,3,9,10-tetrafluoro-12,13-dihydro-5H-indolo[2,3-a]pyrrolo[3,4-c]carbazole-5,7(6H)-dione] | 80 nM | 14 nM | 287.7
7 | NC[C@@H]1C[C@H](O)[C@@H](O)[C@H](n2c3ccc(F)cc3c3c4c(c5c6cc(F)ccc6[nH]c5c32)C(=O)NC4=O)O1 [Example 41] | 20 nM | 72 nM | 27.3
8 | NC[C@H]1O[C@@H](n2c3ccc(F)cc3c3c4c(c5c6ccccc6sc5c32)C(=O)NC4=O)[C@H](O)[C@@H](O)[C@@H]1O [Example 36] | 180 nM | 8990 nM | <1.1
9 | O=C1NC(=O)c2c1c1c3cc(F)c(F)cc3[nH]c1c1c2c2cc(F)c(F)cc2n1[C@@H]1O[C@H](CO)C[C@H](O)[C@H]1O [Example 21] | 70 nM | 5 nM | 207.7
10 | O=C1NC(=O)c2c1c1c3cc(F)c(F)cc3[nH]c1c1c2c2cc(F)c(F)cc2n1[C@@H]1O[C@H](CF)C[C@@H](F)[C@H]1O [Example 17, 12-[3,6-Difluoro-3,4,6-trideoxy-β-D-allopyranosyl]-2,3,9,10-tetrafluoro-12,13-dihydro-5H-indolo[2,3-a]pyrrolo[3,4-c]carbazole-5,7(6H)-dione] | 450 nM | 41 nM | 179.2

The next lines start with results.

Row | EC50 [1] | Compound | IC50 [2] | Selectivity Index R/S (P388/CPT45 cells)
11 | 20 nM | O=C1NC(=O)c2c1c1c3cc(F)ccc3[nH]c1c1c2c2cc(F)ccc2n1[C@@H]1O[C@H](CO)C[C@@H](O)[C@H]1O [Example 20, 12-[4-Deoxy-β-D-allopyranosyl)-3,9-difluoro-12,13-dihydro-5H-indolo [2,3-a]pyrrolo[3,4-c]carbazole-5,7(6H)-dione] | 2 nM | 201.2
12 | 240 nM | O=C1NC(=O)c2c1c1c3ccc(F)cc3[nH]c1c1c2c2ccc(F)cc2n1[C@@H]1O[C@H](CO)[C@@H](O)[C@H](O)[C@H]1O [Example 37] | 260 nM | 8.7
13 | 220 nM | O=C1NC(=O)c2c1c1c3cc(F)ccc3[nH]c1c1c2c2cc(F)ccc2n1[C@@H]1O[C@H](CF)[C@H](O)[C@H](O)[C@H]1O [Example 4, 12-[6-Deoxy-6-fluoro-β-D-galactopyranosyl]-3,9-difluoro-12,13-dihydro-5H-indolo[2,3-a]pyrrolo[3,4-c]carbazole-5,7(6H)-dione] | 12 nM | 110.9
14 | 80 nM | O=C1NC(=O)c2c1c1c3cc(F)ccc3[nH]c1c1c2c2cc(F)ccc2n1[C@@H]1O[C@H](CO)C[C@H](O)[C@H]1O [Example 31, 12-[4-Deoxy-β-D-glucopyranosyl]-3,9-difluoro-12,13-dihydro-5H-indolo[2,3-a]pyrrolo[3,4-c]carbazole-5,7(6H)-dione] | 4 nM | 720.7
15 | 20 nM | [N-]=[N+]=N[C@H]1[C@H](O)[C@@H](O)[C@H](n2c3ccc(F)cc3c3c4c(c5c6cc(F)ccc6[nH]c5c32)C(=O)NC4=O)O[C@@H]1CO [Example 10] | 68 nM | 121.3
